{"source": "PubChem BioAssay AID1259407", "about": "(Chemical Carcinogenesis Research Information System (CCRIS), 2018)", "tested_on": "CCRIS mutagenicity, Ames/micronucleus/aberration tests", "test": "CCRIS mutagenicity studies", "settings": "Test System: AMES SALMONELLA TYPHIMURIUM", "key": {"[1]": {"settings": "Strain/Indicator: TA1535, Metabolic Activation: NONE, Method: PREINCUBATION"}, "[2]": {"settings": "Strain/Indicator: TA100, Metabolic Activation: NONE, Method: STANDARD PLATE"}}, "note": "Calls of active or inactive are those of the source. How the calls were made is not given here.", "data": [{"smiles": "CCCCC(CC)CN", "note": "(stereo not given)", "values": [{"measurement": "mutagenic call", "setting": "Strain/Indicator: TA97, Metabolic Activation: HAMSTER, LIVER, S-9, AROCLOR 1254 (10%), Method: PREINCUBATION", "result": "inactive; negative"}, {"measurement": "mutagenic call", "setting": "Strain/Indicator: TA97, Metabolic Activation: HAMSTER, LIVER, S-9, AROCLOR 1254 (30%), Method: PREINCUBATION", "result": "inactive; negative"}, {"measurement": "mutagenic call", "setting": "Strain/Indicator: TA97, Metabolic Activation: NONE, Method: PREINCUBATION", "result": "inactive; negative"}, {"measurement": "mutagenic call", "setting": "Strain/Indicator: TA97, Metabolic Activation: RAT, LIVER, S-9, AROCLOR 1254 (10%), Method: PREINCUBATION", "result": "inactive; negative"}, {"measurement": "mutagenic call", "setting": "Strain/Indicator: TA97, Metabolic Activation: RAT, LIVER, S-9, AROCLOR 1254 (30%), Method: PREINCUBATION", "result": "inactive; negative"}, {"measurement": "mutagenic call", "setting": "Strain/Indicator: TA98, Metabolic Activation: HAMSTER, LIVER, S-9, AROCLOR 1254 (10%), Method: PREINCUBATION", "result": "inactive; negative"}, {"measurement": "mutagenic call", "setting": "Strain/Indicator: TA98, Metabolic Activation: HAMSTER, LIVER, S-9, AROCLOR 1254 (30%), Method: PREINCUBATION", "result": "inactive; negative"}, {"measurement": "mutagenic call", "setting": "Strain/Indicator: TA98, Metabolic Activation: NONE, Method: PREINCUBATION", "result": "inactive; negative"}, {"measurement": "mutagenic call", "setting": "Strain/Indicator: TA98, Metabolic Activation: RAT, LIVER, S-9, AROCLOR 1254 (10%), Method: PREINCUBATION", "result": "inactive; negative"}, {"measurement": "mutagenic call", "setting": "Strain/Indicator: TA98, Metabolic Activation: RAT, LIVER, S-9, AROCLOR 1254 (30%), Method: PREINCUBATION", "result": "inactive; negative"}, {"measurement": "mutagenic call", "setting": "Strain/Indicator: TA100, Metabolic Activation: HAMSTER, LIVER, S-9, AROCLOR 1254 (10%), Method: PREINCUBATION", "result": "inactive; negative"}, {"measurement": "mutagenic call", "setting": "Strain/Indicator: TA100, Metabolic Activation: HAMSTER, LIVER, S-9, AROCLOR 1254 (30%), Method: PREINCUBATION", "result": "inactive; negative"}, {"measurement": "mutagenic call", "setting": "Strain/Indicator: TA100, Metabolic Activation: NONE, Method: PREINCUBATION", "result": "inactive; negative"}, {"measurement": "mutagenic call", "setting": "Strain/Indicator: TA100, Metabolic Activation: RAT, LIVER, S-9, AROCLOR 1254 (10%), Method: PREINCUBATION", "result": "inactive; negative"}, {"measurement": "mutagenic call", "setting": "Strain/Indicator: TA100, Metabolic Activation: RAT, LIVER, S-9, AROCLOR 1254 (30%), Method: PREINCUBATION", "result": "inactive; negative"}, {"measurement": "mutagenic call", "setting": "Strain/Indicator: TA1535, Metabolic Activation: HAMSTER, LIVER, S-9, AROCLOR 1254 (10%), Method: PREINCUBATION", "result": "inactive; negative"}, {"measurement": "mutagenic call", "setting": "Strain/Indicator: TA1535, Metabolic Activation: HAMSTER, LIVER, S-9, AROCLOR 1254 (30%), Method: PREINCUBATION", "result": "inactive; negative"}, {"measurement": "mutagenic call", "setting": "[1]", "result": "inactive; negative"}, {"measurement": "mutagenic call", "setting": "Strain/Indicator: TA1535, Metabolic Activation: RAT, LIVER, S-9, AROCLOR 1254 (10%), Method: PREINCUBATION", "result": "inactive; negative"}, {"measurement": "mutagenic call", "setting": "Strain/Indicator: TA1535, Metabolic Activation: RAT, LIVER, S-9, AROCLOR 1254 (30%), Method: PREINCUBATION", "result": "inactive; negative"}]}, {"smiles": "Nc1ccc2nc3ccccc3c(N)c2c1", "values": [{"measurement": "mutagenic call", "setting": "[1]", "result": "inactive; negative"}, {"measurement": "mutagenic call", "setting": "Strain/Indicator: TA1535, Metabolic Activation: RAT, LIVER, S-9, TETRACHLOROBIPHENYL, Method: PREINCUBATION", "result": "inactive; negative"}, {"measurement": "mutagenic call", "setting": "Strain/Indicator: TA1537, Metabolic Activation: NONE, Method: PREINCUBATION", "result": "active; positive"}, {"measurement": "mutagenic call", "setting": "Strain/Indicator: TA1537, Metabolic Activation: RAT, LIVER, S-9, TETRACHLOROBIPHENYL, Method: PREINCUBATION", "result": "active; positive"}, {"measurement": "mutagenic call", "setting": "Strain/Indicator: TA1538, Metabolic Activation: NONE, Method: PREINCUBATION", "result": "inactive; negative"}, {"measurement": "mutagenic call", "setting": "Strain/Indicator: TA1538, Metabolic Activation: RAT, LIVER, S-9, TETRACHLOROBIPHENYL, Method: PREINCUBATION", "result": "active; positive"}, {"measurement": "mutagenic call", "setting": "Strain/Indicator: TA1977, Metabolic Activation: NONE, Method: PREINCUBATION", "result": "active; positive"}, {"measurement": "mutagenic call", "setting": "Strain/Indicator: TA1977, Metabolic Activation: RAT, LIVER, S-9, TETRACHLOROBIPHENYL, Method: PREINCUBATION", "result": "active; positive"}, {"measurement": "mutagenic call", "setting": "Strain/Indicator: TA1978, Metabolic Activation: RAT, LIVER, S-9, TETRACHLOROBIPHENYL, Method: PREINCUBATION", "result": "inactive; negative"}]}, {"smiles": "COc1c2c(cc3oc4c(CCC(C)(C)O)ccc(O)c4c(=O)c13)O[C@H]1OC=C[C@@H]21", "values": [{"measurement": "mutagenic call", "setting": "Strain/Indicator: TA98, Metabolic Activation: NONE, Method: STANDARD PLATE", "result": "active; positive"}, {"measurement": "mutagenic call", "setting": "Strain/Indicator: TA98, Metabolic Activation: RAT, LIVER, S-9, AROCLOR 1254, Method: STANDARD PLATE", "result": "active; positive"}, {"measurement": "mutagenic call", "setting": "[2]", "result": "inactive; negative"}, {"measurement": "mutagenic call", "setting": "Strain/Indicator: TA100, Metabolic Activation: RAT, LIVER, S-9, AROCLOR 1254, Method: STANDARD PLATE", "result": "active; positive"}]}, {"smiles": "O=C(CCCCl)N=c1sn(C(=O)CCCCl)c2ccc(Cl)cc12", "values": [{"measurement": "mutagenic call", "setting": "Strain/Indicator: TA100, Metabolic Activation: S-9, Method: STANDARD PLATE", "result": "active; positive"}]}, {"smiles": "O=C1CCCCC1=O", "values": [{"measurement": "mutagenic call", "setting": "[2]", "result": "active; positive"}]}, {"smiles": "C/C=C1/C[C@@H](C)[C@](O)(CO)C(=O)OCC2=CCN3CC[C@@H](OC1=O)[C@@H]23", "values": [{"measurement": "mutagenic call", "setting": "Strain/Indicator: TA97A, Metabolic Activation: RAT, LIVER, S-9, SODIUM PHENOBARBITAL AND BETA-NAPHTHOFLAVONE, Method: PREINCUBATION", "result": "inactive; negative"}, {"measurement": "mutagenic call", "setting": "Strain/Indicator: TA97A, Metabolic Activation: RAT, LIVER, S-9, SODIUM PHENOBARBITAL AND BETA-NAPHTHOFLAVONE, Method: STANDARD PLATE", "result": "inactive; negative"}, {"measurement": "mutagenic call", "setting": "Strain/Indicator: TA98, Metabolic Activation: RAT, LIVER, S-9, SODIUM PHENOBARBITAL AND BETA-NAPHTHOFLAVONE, Method: PREINCUBATION", "result": "inactive; negative"}, {"measurement": "mutagenic call", "setting": "Strain/Indicator: TA98, Metabolic Activation: RAT, LIVER, S-9, SODIUM PHENOBARBITAL AND BETA-NAPHTHOFLAVONE, Method: STANDARD PLATE", "result": "inactive; negative"}, {"measurement": "mutagenic call", "setting": "Strain/Indicator: TA100, Metabolic Activation: RAT, LIVER, S-9, SODIUM PHENOBARBITAL AND BETA-NAPHTHOFLAVONE, Method: PREINCUBATION", "result": "inactive; negative"}, {"measurement": "mutagenic call", "setting": "Strain/Indicator: TA100, Metabolic Activation: RAT, LIVER, S-9, SODIUM PHENOBARBITAL AND BETA-NAPHTHOFLAVONE, Method: STANDARD PLATE", "result": "inactive; negative"}, {"measurement": "mutagenic call", "setting": "Strain/Indicator: TA1535, Metabolic Activation: RAT, LIVER, S-9, SODIUM PHENOBARBITAL AND BETA-NAPHTHOFLAVONE, Method: PREINCUBATION", "result": "inactive; negative"}, {"measurement": "mutagenic call", "setting": "Strain/Indicator: TA1535, Metabolic Activation: RAT, LIVER, S-9, SODIUM PHENOBARBITAL AND BETA-NAPHTHOFLAVONE, Method: STANDARD PLATE", "result": "inactive; negative"}, {"measurement": "mutagenic call", "setting": "Strain/Indicator: TA1538, Metabolic Activation: RAT, LIVER, S-9, SODIUM PHENOBARBITAL AND BETA-NAPHTHOFLAVONE, Method: PREINCUBATION", "result": "inactive; negative"}, {"measurement": "mutagenic call", "setting": "Strain/Indicator: TA1538, Metabolic Activation: RAT, LIVER, S-9, SODIUM PHENOBARBITAL AND BETA-NAPHTHOFLAVONE, Method: STANDARD PLATE", "result": "inactive; negative"}]}]}
